Here are results for 5 molecules from patent US12063902B2, “Method of regenerating cannabis” (The State of Israel, Ministry of Agriculture & Rural …, priority 2018, dated 2024).

For assay [1], the system named is Cannabis leaf segment explants. The assay is described as follows: Somatic embryogenesis in liquid culture. It counts as cell-based, Cannabis sativa. Conditions: liquid Gamborg B5 medium. On the procedure: Leaf segments from tissue culture grown on the solid medium (1.5 cm diameter and 4-5 cm long) of two Cannabis cultivars (108 and 201) were used. Innermost leaf whorls were cut obliquely (0.5-1.0 cm), injured with sharp scalpel blade in order to achieve callus initiation. Leaf segment, were used as explant for inoculation on MS medium (Murashige and Skoog 1962) supplemented with 2,4-D (4.0 mg/L) and kinetin [Kin] (0.5 mg/L). After 2-3 weeks the cultures were incubated at 25±2 C at 70-80% humidity in dark in liquid Gamborg B5 medium supplemented with 6% sucrose and different plant hormones (Table 1). The media was refreshed every three weeks.
Leaf segments from tissue culture from two different genotypes (108 and 201) have been used as primary explants. The explants were chopped to small pieces (as less as 0.5 mm) and cultivated in liquid Gamborg B5 medium supplemented with 6% sucrose and different plant hormones (Table 1). The media were refreshed every three weeks.
The initiated suspension cultures along with embryos in globular stage (FIGS. 12A-12B) were sub-cultured in the same medium for three weeks. Part of the cultures was transferred to B5 Gamborg media, supplemented with different hormones/chemicals (Table 2) to provoke embryo elongation and further development. The cultures were transferred to fresh media every three weeks.

The next assay deals with Cannabis shoots. The assay is described as follows: Rooting (root induction) of shoots. It counts as cell-based, Cannabis sativa L. On the procedure:
Shoot was cultivated individually in a tube with root induction (RI) medium composed of half strength MS medium (½MS) supplemented with 100 mg/l myo-inositol, 1 mg/l thiamine-HCl, 90 mg/l phloroglucinol, 2% sucrose (w/v), 0.25% activated charcoal (AC), with or without IBA (at different concentrations (0, 1, 2 mg/l) and 0.8% agar. Soil mixture was moistened by soaking the rooting cylinders in liquid RI medium supplemented with either 0, 1, or 2 mg/l IBA. Each treatment consisted of 10 shoots and results were scored after 4 weeks. Each experiment was repeated three times.
To obtain root induction, different concentrations of IBA were examined. The shoots were placed in a tube containing rooting medium containing 0, 1, or 2 mg/l IBA. Using this method with 2 mg/l IBA, about 85% of the shoots formed roots. However, only low percentage of these plants successfully acclimatized under greenhouse conditions. According to the second approach, shoots were cultured directly in rooting cylinders. After 4 weeks, 100% root formation was achieved, independently of the concentration of auxin used (FIGS. 5A-5C). These plants had better hardening and underwent easier acclimatization in greenhouse conditions. In-vitro clonal propagation, rooting and acclimatized plantlet production was established for 10 different Cannabis cultivars. […]

A further assay deals with Cannabis explants. Nature of the assay: Shoot regeneration in tissue culture with "regeneration premium treatment". It is filed as cell-based, Cannabis sativa.

Experimental for Cannabis explants: Regeneration from Cannabis plant material using tissue culture, germinated leaves, cotyledons and hypocotyls were used for regeneration. The plants were placed on a petri dish containing 20 ml regeneration media using premium treatment with cuticle nicking enzymes: MS salt mixture, supplemented with 100 mg/l myo-inositol, 1 mg/l thiamine-HCl, 2% sucrose (w/v) at pH 5.7) with and without 5 ml pectic enzymes reaction mixture (0.25 ml 10% enzyme fungal mix of pectin and cutinase 0.25 ml 200 mM Tris-HCl).
Three youngest expanding leaves isolated from 3 to 4 weeks old plants were with and placed on regeneration medium with cuticle nicking enzymes (Murashige and Skoog (MS) medium salt mixture, containing 0.05-5.0 μM thidiazuron, supplemented with 100 mg/l myo-inositol, 1 mg/l thiamine-HCl, 2% sucrose (w/v) at pH 5.7, with 5 ml pectic enzymes reaction mixture (0.25 ml 10% cuticle nicking enzyme in 0.25 ml 200 mM Tris-HCl). The cultures were kept for 7 days in low light intensity (2.5 mmol/m2 s) followed by exposure to high light intensity (40 mmol/m2 s) at 25° C., in a 16/8 h photoperiod. Leaf explants were examined after 14 and 21 days and the percentage of explant producing shoots were calculated. […]

With `CC(C)=CCNc1ncnc2nc[nH]c12` [2iP], the “amount of somatic embryos generated” value in assay [1] (gyratory shaker at dark) is reported as “Low amounts of embryos”.

With `O=C(Nc1ccccc1)Nc1ccnc(Cl)c1` [CPPU], the somatic embryo initiation entry in assay [1] (10 mg/l, 6% sucrose) is “essential for the embryo initiation”. `O=C(O)CCCc1c[nH]c2ccccc12` [IBA, indol-3-butyric acid] gave a root formation with Cannabis shoots (shoots cultured directly in rooting cylinders, after 4 weeks, independently of the concentration of auxin (0, 1, 2 mg/l IBA)) of 100%. Moreover, in the assay on Cannabis shoots (tube containing rooting medium, 2 mg/l IBA), the shoots formed roots result was “about 85%”. In the case of `C=C1C[C@]23C[C@@]1(O)CC[C@H]2[C@@]12C=C[C@H](O)[C@@](C)(C(=O)O1)[C@H]2[C@@H]3C(=O)O` [gibberellic acid], the shoot growth entry with Cannabis explants (7.0 μM gibberellic acid added to medium containing 0.5 μM thidiazuron) is listed as “slightly increased shoot growth”. As to `O=C(Nc1ccccc1)Nc1cnns1` [thidiazuron], the “quality and quantity of regenerates” value in the assay on Cannabis explants (0.5 μM thidiazuron, media treatment with cuticle nicking enzymes) is “better”.
